Experimental findings from patent US20150105252A1, “SUBSTITUTED PYRAZOLES AS HERBICIDES” (E I DU PONT DE NEMOURS AND COMPANY, priority 2013, published 2015) are described below.

What all share (experiment): Test F preemergence
The subject of test [1] is common ragweed. The class given is in vivo, Ambrosia elation. The source says:
(§1) Seeds of plant species selected from corn (Zea mays), soybean (Glycine max), velvetleaf (Abutilon theophrasti), lambsquarters (Chenopodium album), wild poinsettia (Euphorbia heterophylla), pigweed, palmer (palmer pigweed, Amaranthus palmeri), common waterhemp (Amaranthus rudis), surinam grass (Brachiaria decumbens), large crabgrass (Digitaria sanguinalis), crabgrass, Brazil (Brazilian crabgrass, Digitaria horizontalis), fall panicum (Panicum dichotomiflorum), giant foxtail (Setaria faberii), green foxtail (Setaria viridis), goosegrass (Eleusine indica), johnsongrass (Sorghum halepense), common ragweed (Ambrosia elation), barnyardgrass (Echinochloa crus-galli), southern sandbur (Cenchrus echinatus), arrowleaf sida (Sida rhombifolia), Italian ryegrass (Lolium multiflorum), dayflower, VA (Virginia (VA) dayflower, Commelina virginica), field bindweed (Convolvulus arvensis), cocklebur (common cocklebur, Xanthium strumarium), morningglory (Ipomoea coccinea), nightshade (eastern black nightshade, Solanum ptycanthum), kochia (Kochia scoparia), yellow nutsedge (Cyperus esculentus), and hairy beggarticks (Bidens pilosa), were planted into a silt loam soil and treated preemergence with test chemicals formulated in a non-phytotoxic solvent mixture which included a surfactant.
(§2) At the same time, plants from these crop and weed species and also horseweed (Canada horseweed, Conyza canadensis), smartweed (ladysthumb smartweed, Polygonum persicaria), waterhemp_RES1, (ALS & Triazine resistant common waterhemp, Amaranthus rudis), and waterhemp_RES2, (ALS & HPPD resistant common waterhemp, Amaranthus rudis) were treated with postemergence applications of test chemicals formulated in the same manner. Plants ranged in height from 2 to 18 cm for postemergence treatments (1- to 4-leaf stage). Treated plants and controls were maintained in a greenhouse for 14 to 21 days, after which time all species were compared to controls and visually evaluated. Plant response ratings, summarized in Table F, are based on a scale of 0 to 100 where 0 is no effect and 100 is complete control. A dash (-) response means no test result.

The test system of test [2] is wild poinsettia. The class given is in vivo, Euphorbia heterophylla.
Text: as §1, §2

Test [3] deals with Surinam grass. The class given is in vivo, Brachiaria decumbens.
Text: as §1, §2

The subject of test [4] is johnsongrass. The class given is in vivo, Sorghum halepense.
Text: as §1, §2

The subject of test [5] is nightshade. The class given is in vivo, Solanum ptycanthum. The method, boiled down:
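Plant response is scored by eye relative to controls on a 0 to 100 scale, where 100 means complete control. Preemergence applications were made to seeded silt loam; postemergence ones to seedlings 2 to 18 cm high. Greenhouse holding time was 14 to 21 days.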

The mark [6] stands for this setting: Preemergence, 16 g ai/ha, scale 0 to 100.
Where [7] appears, read: Preemergence, 62 g ai/ha, scale 0 to 100.
The mark [8] stands for this setting: Preemergence, 125 g ai/ha, scale 0 to 100.
Where [9] appears, read: Preemergence, 250 g ai/ha, scale 0 to 100.
Setting [10] is: preemergence, 16 g ai/ha, scale 0 to 100, 100 is complete control.

`CCCc1cc(C(=O)NC(C)C)nn1Cc1cc(C(F)(F)F)nn1C` [Compound 201]: the “Plant response rating, Common Ragweed” value in test [1] (setting [6]) was found to be 0; in test [1] (setting [7]) it was 0; in test [1] (setting [8]), 35; in test [1] (setting [9]), 65; in test [1] (setting [10]), 0. In addition, the “Plant response rating, Wild Poinsettia” value turned out to be 5 in test [2] (setting [7]), 25 in test [2] (setting [8]), 65 in test [2] (setting [9]) and 0 in test [2] (setting [10]). Moreover, the “Plant response rating, Surinam Grass” value in test [3] (setting [7]) was found to be 0; in test [3] (setting [8]), 35; in test [3] (setting [9]), 65; in test [3] (setting [10]), 0. The “Plant response rating, Johnsongrass” value in test [4] (setting [7]) came out at 25; in test [4] (setting [8]), 80; in test [4] (setting [9]), 95; in test [4] (setting [10]), 0. The “Plant response rating, Nightshade” value in test [5] (setting [6]) worked out at 10; in test [5] (setting [7]) it was 80; in test [5] (setting [8]), 95; in test [5] (setting [9]) it was 98; in test [5] (setting [10]), 0.
